Two compounds from publication PMC7503370, “Cellular Signaling and Anti-Apoptotic Effects of Prolactin-Releasing Peptide and Its Analog on SH-SY5Y Cells” (International Journal of Molecular Sciences, 2020) can be followed below.

Common to all, as to format: cell-based, human
The test system of assay [1] is p-c-Jun, p-ERK, p-Bad, Bax/Bcl-2 in SH-SY5Y cells. As to the kind of experiment: Western blotting of anti-apoptotic signaling in MG-stressed cells. The note with it: 4 h pretreatment 1 × 10^−5 M, then 0.6 mM MG 16 h, vs MG, triplicates; for decrease of the MG-increased level of p-Bad (Ser112)/Bad / decrease of the MG-increased level of p-Bad (Ser136)/Bad / decrease of the MG-increased level of p-c-Jun (Ser73)/c-Jun: normalized to GAPDH. As to the method: Figure 7 PrRP31 and palm^11-PrRP31 affected anti-apoptotic signaling in SH-SY5Y cells. Immunoblots: (a) and their quantifications: (b). SH-SY5Y cells were pretreated with PrRP31 and palm^11-PrRP31 at a concentration of 1 × 10^−5 M for 4 h and then stressed with 0.6 mM MG for 16 h. Activation was expressed as the ratio of the activated protein to the total amount of the protein, both normalized to loading control, GAPDH. Data are presented as the means ± SEM as a percentage of control cells treated with medium alone. Analysis is made vs. MG by a Student’s t-test, * p < 0.5, ** p < 0.01 (each sample in triplicates).
(§1) For the investigation of the molecular mechanism of PrRP31 and its analog in the cells, signaling pathways were studied by Western blotting (WB). The cells were cultured in 6-well plates at a density of 800,000 cells per well. Growth medium was exchanged for serum-free DMEM 16 h before an experiment, and then, the cells were incubated with PrRP31, palm^11-PrRP31, or scrambled peptide at a final concentration of 1 × 10^−5 M or insulin at a concentration of 1 × 10^−7 M at 37 °C for 8 min. The cells were rapidly cooled on ice and lysed in 400 µl of Laemmli sample buffer (62.5 mM Tris-HCl with pH 6.8, 2% SDS, 10% glycerol, 0.01% bromophenol blue, 5% mercaptoethanol, 50 mM NaF, and 1 mM Na3VO4) and stored at −20 °C. Afterward, the cell lysates were analyzed by WB. SDS-electrophoresis and WB were carried out using a Criterion system with a 26-well 4−15% Criterion^TM TGX^TM Precast Midi Protein Gel (Bio-Rad, Hercules, CA, USA) at a constant voltage of 200 V or 100 V, respectively.
(§2) Subsequently, the membranes were incubated overnight with primary antibody (Ab) at 4 °C, according to the manufacturer´s instructions (Table 2). The next day, the membranes were incubated with an HRP-linked secondary antibody for 1 h at room temperature. Chemiluminescence was visualized with a ChemiDoc^TM System (Bio-Rad). Band intensities were normalized using glyceraldehyde 3-phosphate dehydrogenase (GAPDH) as an internal loading control.
For analysis of the molecular mechanism during MG stress, the growth medium was exchanged for serum-free DMEM 16 h before the experiment. The cells were pretreated with 1 × 10^−5 M PrRP31 or palm^11-PrRP31 for 4 h; then, MG was added to a final concentration of 0.6 mM, and the cells were incubated at 37 °C for 16 h. The controls and compounds were tested in triplicate.
For orientation: A western blot detects proteins with antibodies after separation by electrophoresis.

Assay [2] has as its system p-m-Tor, p-GSK-3β, p-ERK, p-CREB in SH-SY5Y cells. Briefly: Western blotting with selective inhibitors of signaling pathways. Conditions: insulin 1 × 10^−7 M, 37 °C, 8 min; for p-CREB after incubation with peptide, no inhibitor / p-ERK after incubation with peptide, no inhibitor / p-m-Tor (Ser2448) after application of peptide, no inhibitor: PrRP31 and palm^11-PrRP31 1 × 10^−5 M. As for the experimental part: Immunoblots with PrRP31 and palm^11-PrRP31: (a) and insulin: (b) and their quantifications: (c). SH-SY5Y cells were incubated firstly with selective inhibitors for 2 min and then either with PrRP31 and its palmitoylated analog at a final concentration 1 × 10^−5 M, or with insulin in the final concentration 1 × 10^−7 M at 37 °C for 8 min, or alone in serum-free medium. Activated protein was normalized to loading control, GAPDH. Data are presented as the means ± SEM as a percentage of control cells treated with medium alone. Analysis is made between groups as shown in the graph by a Student’s t-test, * p < 0.5, ** p < 0.01, *** p < 0.001(each sample in triplicates).
(§3) Eight minutes of incubation was performed in a series of experiments with different exposure times (5, 10, 15, 30, and 60 min) to PrRP31 and its palmitoylated analog. Activation of analogs was strongest after 10 min. Then, the cells were treated with inhibitors of signaling pathways for 2 min, and analogs were added for 8 min. The time of exposure was set to 8 min to ensure that the incubation time for PrRP31 and its palmitoylated analog was the same. The controls and compounds were tested in triplicate in three independent experiments. The PI3K/Akt pathway is one of the main signaling pathways of insulin; therefore, insulin was used as a positive control. Scrambled peptide was used as a negative control. Activation is expressed as the ratio of the activated protein to the total amount of the protein. GAPDH was used as a loading control.
For further research, inhibitors of signaling pathways were used. The growth medium was exchanged for serum-free DMEM 16 h before the experiment. On the day of the experiment, cells were incubated for 2 min with rapamycin, SB216736 or U0126 at a final concentration of 1 × 10^−6 M; then, PrRP31, palm^11-PrRP31 or scrambled peptide at a final concentration of 1 × 10^−5 M or insulin at a concentration of 1 × 10^−7 M was added for 8 min. The plates were stored at 37 °C. The controls and compounds were tested in triplicate.

For assay [3], the system named is PI3K/Akt signaling pathway in SH-SY5Y cells. Briefly: Western blotting of PI3K/Akt signaling pathway after 8 min incubation. The note with it: 1 × 10^-5 M, 37 °C, vs control cells (medium alone), normalized to GAPDH, n = 3, triplicates. As for the experimental part:
Figure 1 Prolactin-releasing peptide 31 (PrRP31) and palm^11-PrRP31 increased phosphoinositide-3 kinase (PI3K/Akt) signaling pathway in SH-SY5Y cells. Immunoblots: (a) and their quantifications: (b). SH-SY5Y cells were incubated either with PrRP31 and its palmitoylated analog and scrambled at a final concentration 1 × 10^-5 M, or with insulin at the final concentration 1 × 10^−7 M at 37 °C for 8 min, or medium alone (control). Activation was expressed as the ratio of the activated protein to the total amount of the protein, both normalized to loading control, glyceraldehyde 3-phosphate dehydrogenase (GAPDH). Data are presented as the means ± SEM as a percentage of control cells analyzed by one-way ANOVA followed by the Dunnett post hoc test, * p < 0.5, ** p < 0.01, **** p < 0.0001 (n = 3, each sample in triplicates).
as §1, §2, §3

Setting [4] is: normalized to GAPDH, triplicates.

Numbered stars: 1 amine (or outer) side, 2 acyl side, 3 side chain; on linkers, the order of the positions; unused ones are H or OH. Side chains are listed from the residue outwards. Peptide text beside a SMILES is read from it. * marks the point of attachment. γGlu = O=C(O)[C@H](CCC(=O)[*:2])N[*:1]; Palmitoyl = CCCCCCCCCCCCCCCC(=O)*

In the case of `CCCCCCCCCCCCCCCC(=O)N[C@@H](CCC(=O)NCCCC[C@H](NC(=O)[C@@H](NC(=O)[C@H](CCC(=O)O)NC(=O)[C@H](CCSC)NC(=O)[C@H](CO)NC(=O)[C@H](Cc1c[nH]cn1)NC(=O)[C@H](CCCNC(=N)N)NC(=O)[C@H](Cc1c[nH]cn1)NC(=O)[C@@H](NC(=O)[C@H](CCCNC(=N)N)NC(=O)[C@@H](N)CO)[C@@H](C)O)[C@@H](C)CC)C(=O)N[C@H](C(=O)N1CCC[C@H]1C(=O)N[C@@H](CC(=O)O)C(=O)N[C@H](C(=O)N[C@@H](CC(N)=O)C(=O)N1CCC[C@H]1C(=O)N[C@@H](C)C(=O)N[C@@H](Cc1c[nH]c2ccccc12)C(=O)N[C@@H](Cc1ccc(O)cc1)C(=O)N[C@@H](C)C(=O)N[C@@H](CO)C(=O)N[C@@H](CCCNC(=N)N)C(=O)NCC(=O)N[C@H](C(=O)N[C@@H](CCCNC(=N)N)C(=O)N1CCC[C@H]1C(=O)N[C@H](C(=O)NCC(=O)N[C@@H](CCCNC(=N)N)C(=O)N[C@@H](Cc1ccccc1)C(N)=O)C(C)C)[C@@H](C)CC)[C@@H](C)CC)[C@@H](C)O)C(=O)O` [palm^11-PrRP31] (H-SRTHRHSMEIK([γGlu-Palmitoyl])TPDINPAWYASRGIRPVGRF-NH2; N-terminus assumed), in assay [1], the “decrease of the MG-increased level of p-Bad (Ser112)/Bad” value was 46%, the “decrease of the MG-increased level of p-Bad (Ser136)/Bad” value was determined as 52%, the “decrease of the MG-increased level of p-c-Jun (Ser73)/c-Jun” value was determined as 37% and the “attenuation of the MG-increased ratio of Bax/Bcl−2” value was determined as 38%. Moreover, in assay [2], the “p-CREB after incubation with peptide, no inhibitor” value is reported as “increased” and the “p-ERK after incubation with peptide, no inhibitor” value is given as “increased”. Besides, the “p-m-Tor (Ser2448) after application of peptide, no inhibitor” value in assay [2] (setting [4]) is listed as “significantly increased”. In addition, the “p-GSK-3β (Ser9) after incubation with peptide, no inhibitor” value in assay [2] (palm^11-PrRP31 1 × 10^−5 M, normalized to GAPDH, triplicates) is “slight increase”. In assay [3], the “increase of the level of p-Akt (Ser473)/Akt” value amounted to 48%, the “increase of the level of p-Akt (Thr308)/Akt” value is on record as 36%, the “increase of the level of p-GSK3β (inhibitory Ser9)/GSK3β” value turned out to be 85% and the “increase of the level of p-PDK1 (Ser241)/PDK1” value is recorded as 20%. Besides, the “increase of the level of p-m-Tor (Ser2448)/m-Tor” value in assay [3] worked out at 22%.

Take `CC[C@H](C)[C@H](NC(=O)CNC(=O)[C@H](CCCNC(=N)N)NC(=O)[C@H](CO)NC(=O)[C@H](C)NC(=O)[C@H](Cc1ccc(O)cc1)NC(=O)[C@H](Cc1c[nH]c2ccccc12)NC(=O)[C@H](C)NC(=O)[C@@H]1CCCN1C(=O)[C@H](CC(N)=O)NC(=O)[C@@H](NC(=O)[C@H](CC(=O)O)NC(=O)[C@@H]1CCCN1C(=O)[C@@H](NC(=O)[C@H](CCCNC(=N)N)NC(=O)[C@@H](NC(=O)[C@H](CCC(=O)O)NC(=O)[C@H](CCSC)NC(=O)[C@H](CO)NC(=O)[C@H](Cc1c[nH]cn1)NC(=O)[C@H](CCCNC(=N)N)NC(=O)[C@H](Cc1c[nH]cn1)NC(=O)[C@@H](NC(=O)[C@H](CCCNC(=N)N)NC(=O)[C@@H](N)CO)[C@@H](C)O)[C@@H](C)CC)[C@@H](C)O)[C@@H](C)CC)C(=O)N[C@@H](CCCNC(=N)N)C(=O)N1CCC[C@H]1C(=O)N[C@H](C(=O)NCC(=O)N[C@@H](CCCNC(=N)N)C(=O)N[C@@H](Cc1ccccc1)C(N)=O)C(C)C` [PrRP31]: in assay [1], the “decrease of the MG-increased level of p-Bad (Ser112)/Bad” value is “tended to decrease”, the “decrease of the MG-increased level of p-Bad (Ser136)/Bad” value is listed as “tended to decrease” and the “decrease of the MG-increased level of p-c-Jun (Ser73)/c-Jun” value is “tended to decrease”. In assay [2], the “p-CREB after incubation with peptide, no inhibitor” value is recorded as “increased” and the “p-ERK after incubation with peptide, no inhibitor” value is listed as “increased”. Also, in assay [2] (setting [4]), the “p-m-Tor (Ser2448) after application of peptide, no inhibitor” value was “significantly increased”. Also, in assay [3], the “increase of the level of p-Akt (Ser473)/Akt” value is 53%, the “increase of the level of p-GSK3β (inhibitory Ser9)/GSK3β” value is on record as 41% and the “increase of the level of p-m-Tor (Ser2448)/m-Tor” value was determined as 22%.
